Results from patent publication US20100092443A1, “NOVEL COMBINATIONS OF NITROGENATED HETEROCYCLIC ANTIBACTERIAL COMPOUNDS WITH OTHER ANTIBACTERIAL COMPOUNDS AND THE USE OF SAME AS DRUGS” (priority 2008, published 2010).
Values after ≈ are worked out from the molar mass of the structure shown. Read-outs that look alike come from different tables or passages of the source.

What was measured:
Format in all cases: cell-based
Pseudomonas aeruginosa = experiment: MIC, dilutions in liquid medium, alone and combined with NXL105; conditions: Pseudomonas aeruginosa
Procedure: (§1) In vitro activity, method of dilutions in liquid medium:
A series of test 96-well microtiter plates are prepared in which the same quantity of sterile nutritive medium is distributed. Increasing quantities of the compound to be studied, namely the antibacterial compound alone and the inventive combination with the compound of formula (I) of example 1, are distributed in each plate in the respective proportions 2:1 and 4:1, and then each plate is inoculated with a bacterial strain of Pseudomonas aeruginosa. After 24 h of incubation in a 37° C. oven, growth inhibition is evaluated by transillumination, which makes it possible to determine the minimum inhibitory concentrations (MICS) expressed in μg/ml.

E. coli = experiment: microbe, parasite or virus in culture; conditions: Escherichia coli
Procedure: as §1
(§2) A series of test 96-well microtiter plates are prepared in which the same quantity of sterile nutritive medium is distributed. […] After 24 h of incubation in a 37° C. oven, growth inhibition is evaluated by transillumination, which makes it possible to determine the minimum inhibitory concentrations (MICS) expressed in μg/ml.

E. cloacae = experiment: MIC, dilutions in liquid medium, alone and combined with NXL105; conditions: Enterobacter cloacae, read-out: MIC
Procedure: as §1, §2

K. pneumoniae = experiment: as above; conditions: Klebsiella pneumoniae, read-out: MIC
Procedure: as §1, §2

K. oxytoca = experiment: as above; conditions: Klebsiella oxytoca, read-out: MIC
C. freundii = experiment: as above; conditions: Citrobacter freundii, read-out: MIC
E. aerogenes = experiment: as above; conditions: Klebsiella aerogenes, 24 h; E. aerogenes EAR2; Case-R + FEP-R; read-out: MIC

CC(C)(O/N=C(\C(=O)N[C@@H]1C(=O)N2C(C(=O)[O-])=C(C[n+]3ccccc3)CS[C@H]12)c1csc(N)n1)C(=O)O [Ceftazidime]
MIC (Pseudomonas aeruginosa; ATCC27853, P. aeruginosa ATCC 27853): 0.5 µg/mL | MIC (Pseudomonas aeruginosa; P. aeruginosa 391HG2): > 32 µg/mL | MIC (Pseudomonas aeruginosa; P. aeruginosa 391HG21): > 32 µg/mL | MIC (Pseudomonas aeruginosa; P. aeruginosa 391HG38): > 32 µg/mL | MIC (Pseudomonas aeruginosa; P. aeruginosa 391HG39): 1 µg/mL | MIC (Pseudomonas aeruginosa; P. aeruginosa 391HG58): > 32 µg/mL | MIC (Pseudomonas aeruginosa; P. aeruginosa 391HG118): 4 µg/mL | MIC (Pseudomonas aeruginosa; P. aeruginosa 391HG123): 32 µg/mL | MIC (Pseudomonas aeruginosa; P. aeruginosa 391HG158): > 32 µg/mL | MIC (Pseudomonas aeruginosa; P. aeruginosa 391HG271): > 32 µg/mL | MIC (Pseudomonas aeruginosa; P. aeruginosa 391HG329): > 32 µg/mL | MIC (Pseudomonas aeruginosa; P. aeruginosa 391K1455): 32 µg/mL | MIC (Pseudomonas aeruginosa; P. aeruginosa 391K1523): 16 µg/mL | MIC (Pseudomonas aeruginosa; P. aeruginosa 391K1525): 32 µg/mL | MIC (Pseudomonas aeruginosa; P. aeruginosa 391K1536): 32 µg/mL | MIC (Pseudomonas aeruginosa; P. aeruginosa 391K2376): 32 µg/mL | MIC (Pseudomonas aeruginosa; P. aeruginosa 391K2379): 32 µg/mL | MIC (Pseudomonas aeruginosa; P. aeruginosa 391K2415): 32 µg/mL | MIC (Pseudomonas aeruginosa; P. aeruginosa 391KB9): > 32 µg/mL | MIC (Pseudomonas aeruginosa; P. aeruginosa 391KB14): 32 µg/mL | MIC (Pseudomonas aeruginosa; P. aeruginosa 391KB21): > 32 µg/mL | MIC (Pseudomonas aeruginosa; P. aeruginosa 391KB33): 32 µg/mL | MIC (Pseudomonas aeruginosa; P. aeruginosa 391KB38): > 32 µg/mL | MIC (Pseudomonas aeruginosa; P. aeruginosa 391KB62): > 32 µg/mL | MIC (Pseudomonas aeruginosa; P. aeruginosa 391KB68): > 32 µg/mL | MIC (Pseudomonas aeruginosa; P. aeruginosa 391KB90): > 32 µg/mL | MIC (Pseudomonas aeruginosa; P. aeruginosa 391KB91): > 32 µg/mL | MIC (Pseudomonas aeruginosa; P. aeruginosa 391KB99): > 32 µg/mL | MIC (Pseudomonas aeruginosa; P. aeruginosa 391KB103): 32 µg/mL | MIC (Pseudomonas aeruginosa; P. aeruginosa 391KB105): > 32 µg/mL | MIC (Pseudomonas aeruginosa; P. aeruginosa 391KB106): 32 µg/mL | MIC (Pseudomonas aeruginosa; P. aeruginosa 391KB107): > 32 µg/mL | MIC (Pseudomonas aeruginosa; P. aeruginosa 391KB114): > 32 µg/mL | MIC (Pseudomonas aeruginosa; P. aeruginosa 391KB127): > 32 µg/mL | MIC (Pseudomonas aeruginosa; P. aeruginosa 391KB135): > 32 µg/mL | MIC (Pseudomonas aeruginosa; P. aeruginosa 391KB136): > 32 µg/mL | MIC (Pseudomonas aeruginosa; P. aeruginosa 391KB137): > 32 µg/mL | MIC (Pseudomonas aeruginosa; P. aeruginosa 391KB138): > 32 µg/mL | MIC (Pseudomonas aeruginosa; P. aeruginosa 391KB139): > 32 µg/mL | MIC (Pseudomonas aeruginosa; P. aeruginosa 391KB140): 16 µg/mL | MIC (Pseudomonas aeruginosa; P. aeruginosa 391KB141): > 32 µg/mL | MIC (Pseudomonas aeruginosa; P. aeruginosa 391KB142): > 32 µg/mL | MIC (Pseudomonas aeruginosa; P. aeruginosa 391KB143): > 32 µg/mL | MIC (Pseudomonas aeruginosa; P. aeruginosa 391KB144): > 32 µg/mL | MIC (Pseudomonas aeruginosa; P. aeruginosa 391QBR2): > 32 µg/mL | MIC (Pseudomonas aeruginosa; P. aeruginosa 391QBR3): > 32 µg/mL | MIC (Pseudomonas aeruginosa; P. aeruginosa 391QBR4): > 32 µg/mL | MIC (Pseudomonas aeruginosa; P. aeruginosa 391QBR5): > 32 µg/mL | MIC (Pseudomonas aeruginosa; P. aeruginosa 391QBR7): > 32 µg/mL | MIC (Pseudomonas aeruginosa; P. aeruginosa 391QBR8): > 32 µg/mL | MIC (Pseudomonas aeruginosa; P. aeruginosa 391QBR9): > 32 µg/mL | MIC (Pseudomonas aeruginosa; P. aeruginosa 391QBR10): > 32 µg/mL | MIC (Pseudomonas aeruginosa; P. aeruginosa C3719): > 32 µg/mL | MIC (E. coli; 24 h, E. coli 2138, KPC-2 + TEM-1): > 32 µg/mL | MIC (E. coli; 24 h, E. coli (no alias), CTX-M-15 + TEM-1 + OXA-1): > 32 µg/mL | MIC (E. coli; 24 h, E. coli IND, VEB-1 + CMY-2): > 32 µg/mL | MIC (E. coli; 24 h, E. coli TN06, CTX-M-2 + TEM-1): 16 µg/mL | MIC (E. coli; 24 h, E. coli TN13, CTX-M-14 + CMY-2 + TEM-1): > 32 µg/mL | MIC (E. coli; 24 h, E. coli Tunisie clone E4, CTX-M-16 + TEM-1): > 32 µg/mL | MIC (E. coli; E. coli (no alias), Cephalosporinase, read-out: MIC): > 32 µg/mL | MIC (E. coli; E. coli (no alias), SHV-4): > 32 µg/mL | MIC (E. coli; E. coli (no alias), TEM-3): 32 µg/mL (≈ 58.5 µM) | MIC (E. cloacae; 24 h, E. cloacae 7506, KPC-2 + TEM-1 + KLUC-2): > 32 µg/mL | MIC (E. cloacae; E. cloacae (no alias), AmpC): > 32 µg/mL | MIC (E. cloacae; E. cloacae, AmpC): 32 µg/mL | MIC (K. pneumoniae; 24 h, K. pneumoniae 60, SHV-2 + TEM-2 + PER): > 32 µg/mL | MIC (K. pneumoniae; 24 h, K. pneumoniae 157, SHV-5 + TEM-26): > 32 µg/mL | MIC (K. pneumoniae; 24 h, K. pneumoniae 181, SHV-5 + TEM-10): > 32 µg/mL | MIC (K. pneumoniae; 24 h, K. pneumoniae 236, SHV-5 + TEM-10): > 32 µg/mL | MIC (K. pneumoniae; 24 h, K. pneumoniae 238, SHV-2 + TEM-12 + CTX-M-2): > 32 µg/mL | MIC (K. pneumoniae; 24 h, K. pneumoniae 243, SHV-5 + TEM-63): > 32 µg/mL | MIC (K. pneumoniae; 24 h, K. pneumoniae 253, SHV-2 + TEM-12 + CTX-M-2): > 32 µg/mL | MIC (K. pneumoniae; 24 h, K. pneumoniae 427, SHV-1 + TEM-1B + CTX-M-3): > 32 µg/mL | MIC (K. pneumoniae; 24 h, K. pneumoniae 441, SHV-1 + TEM-2 + PER): > 32 µg/mL | MIC (K. pneumoniae; 24 h, K. pneumoniae 444, SHV-5 + TEM-2 + PER): > 32 µg/mL | MIC (K. pneumoniae; 24 h, K. pneumoniae 449, SHV-1 + TEM-2 + PER): > 32 µg/mL | MIC (K. pneumoniae; 24 h, K. pneumoniae 465, TEM-1B + CTX-M-2): > 32 µg/mL | MIC (K. pneumoniae; 24 h, K. pneumoniae 1734, FOX-3 + TEM-1): > 32 µg/mL | MIC (K. pneumoniae; 24 h, K. pneumoniae 9701, CMY-4 + TEM-1): > 32 µg/mL | MIC (K. pneumoniae; 24 h, K. pneumoniae KOL, MOX-2 + SHV-5 + TEM-1): > 32 µg/mL | MIC (K. pneumoniae; 24 h, K. pneumoniae Patient 1BHR, VIM-4 + CTX-M-15 = CMY-4 + TEM-1): > 32 µg/mL | MIC (K. pneumoniae; 24 h, K. pneumoniae Patient F, VIM-1 + SHV-5): > 32 µg/mL | MIC (K. pneumoniae; 24 h, K. pneumoniae SLK54, ACC-1 + TEM-1): > 32 µg/mL | MIC (K. pneumoniae; 24 h, K. pneumoniae TN58467, DHA-1 + SHV-2a + TEM-1): > 32 µg/mL | MIC (K. pneumoniae; 24 h, K. pneumoniae Tunisie clone K1, CTX-M-16 + OXA-1): > 32 µg/mL | MIC (K. pneumoniae; 24 h, K. pneumoniae Tunisie clone K4, CTX-M-15 + TEM-1 + OXA-1): > 32 µg/mL | MIC (K. pneumoniae; ATCC700603, K. pneumoniae ATCC 700603, SHV-18): > 32 µg/mL | MIC (K. pneumoniae; K. pneumoniae 26, SHV-5): > 32 µg/mL | MIC (K. pneumoniae; K. pneumoniae CL5761, KPC-3): > 32 µg/mL | MIC (K. pneumoniae; K. pneumoniae CL5762, KPC-3): > 32 µg/mL | MIC (K. pneumoniae; K. pneumoniae CL5763, KPC-3): > 32 µg/mL | MIC (K. pneumoniae; K. pneumoniae KP04, CTX-M-14): 32 µg/mL | MIC (K. pneumoniae; K. pneumoniae VA8, KPC-3): > 32 µg/mL | MIC (K. pneumoniae; K. pneumoniae VAKP, KPC-2): > 32 µg/mL | MIC (K. pneumoniae; K. pneumoniae YC, KPC-2): > 32 µg/mL | MIC (K. oxytoca; K. oxytoca 1431, TEM-129): > 32 µg/mL | MIC (K. oxytoca; K. oxytoca 16944, OXY-2, TEM-1): > 32 µg/mL | MIC (C. freundii; 24 h, C. freundii (no alias), AmpC + TEM-1): > 32 µg/mL | MIC (C. freundii; C. freundii (no alias, table row r121), AmpC): > 32 µg/mL | MIC (C. freundii; C. freundii (no alias, table row r122), AmpC): > 32 µg/mL | MIC (C. freundii; C. freundii (no alias, table row r123), AmpC): > 32 µg/mL | MIC (C. freundii; C. freundii (no alias, table row r125), AmpC): 16 µg/mL | MIC (E. aerogenes): > 32 µg/mL
